Measured values reported in patent publication US20220033407A1, “N-(pyridin-2-ylsulfonyl)cyclopropanecarboxamide Derivatives and their Use in the Treatment of Disease” (NOVARTIS AG, priority 2018, published 2022).
pEC50: −log10 of the molar value.

Key:
delF508-CFTR-HRP = target: T1, delF508-CFTR-HRP (Homo sapiens, UniProt P13569, DEL508-508); assay: Measurement of delF508-CFTR-HRP surface expression in CFBE41o- cells (HRP luminescence); type: cell-based; settings: for Emax: CFBE41o-, read-out: DelF508-CFTR-HRP Amax %; for pEC50: mean of at least two replicates;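 on DelF508-CFTR-HRP Amax %: percent efficacy relative to a reference CFTR corrector compound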
T1 construct: expressed in transfected cells
Summary of the method: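 EC50 derived by logistic regression of triplicate surface-HRP luminescence, plate-normalized to the lowest-concentration median. Doxycycline (500 ng/mL, 48 h) induced delF508-CFTR-HRP in CFBE41o- cells; compounds then applied 24 h at 37° C, 10 μM top, 3-fold over 10 points.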

delF508-CFTR = target: T2, delF508-CFTR (Homo sapiens, UniProt P13569, DEL508-508); assay: delF508-CFTR functional activity in primary human bronchial epithelial cells (HBECs), Multi-Transepithelial Clamp Circuit (MTECC-24) assay, equivalent short circuit current; type: cell-based; settings: primary CF HBECs; for MTECC24 CFHBEC-Amax %: relative to reference combination 2 μM 3-(6-(1-(2,2-difluorobenzo[d][1,3]dioxol-5-yl)cyclopropane-1-carboxamido)-3-methylpyridin-2-yl)benzoic acid (24 h) + 0.5 μM N-(2,4-di-tert-butyl-5-hydroxyphenyl)-4-oxo-1,4-dihydroquinoline-3-carboxamide; for pEC50: test compound added 24 h before assay, potentiator (S)-3-amino-6-methoxy-N-(3,3,3-trifluoro-2-hydroxy-2-methylpropyl)-5-(trifluoromethyl)picolinamide present at assay, mean of at least two replicates, read-out: MTECC24 CFHBEC-EC50
T2 construct: functional activity of the CFTR channel (Chloride ion transport) in patient derived primary human bronchial epithelial cells; host or cells: patient-derived primary human bronchial epithelial cells (HBECs), delF508-CFTR
Excerpt: Measurement of delF508-CFTR Functional Activity in Primary Human Bronchial Epithelial Cells (HBECs) Using Multi-Transepithelial Clamp Circuit (MTECC-24) Assay
This assay measures the functional activity of the CFTR channel (Chloride ion transport) in patient derived primary human bronchial epithelial cells with forskolin activation and in the presence of the CFTR corrector wherein the corrector is a compound of the invention and the potentiator is (S)-3-amino-6-methoxy-N-(3,3,3-trifluoro-2-hydroxy-2-methylpropyl)-5-(trifluoromethyl)picolinamide.
Primary human delF508-CFTR bronchial epithelial cells were purchased from Asterand and cultured according to previously established methods (Fulcher et al. (2005) Methods Mol Med 107: 183-206). Briefly, vendor supplied cells were rapidly defrosted and added to a T175 flask in 50 mL growth media (Lonza BEBM media with Lonza BEGM singlequots). Media was replaced after 24 h and then cells were fed every other day until cells were 80-90% confluent, at which point cells were cryopreserved. These P1 vials were thawed at 37° C. as needed and added to T175 flasks in 50 mL growth media at 5×10^5 cells/flask. Media was replaced after 24 h, and then cells were fed every other day until 80-90% confluent. Cells were lifted with 5 mL Accutase at 37° C. for 5 minutes, centrifuged at 1000 rpms for 5 min (300 g), and resuspended in differentiation media (50% BEBM in DMEM, BEGM singlequots, all trans retinoic acid (5×10·8M)). Cells were then counted and cell suspension was added to collagen coated inserts at 3×10^4 cells/insert in 0.15 mL with 0.5 mL differentiation media on the basolateral side.
Apical and basolateral media were replaced on alternate days, and following day 7 (or when confluent plus 2 days), air liquid interface was established for approximately two weeks by removal of apical media. One day prior to use on the MTECC24 system (EP-Devices, EP Design, Belgium), 0.15 mL of warmed (37° C.) PBS was added to the apical surface of the cultures and returned to humidifier (37° C., 5% CO2 incubator) for 30 min before aspirating the apical surface to remove any mucus.
Compound treatments were then prepared. Compound dilutions, typically a 10 point concentration response with 1 in 3 dilution steps, were made in 100% DMSO before dilution 1 in 1000 into differentiation medium with a final DMSO concentration of 0.1% or 0.2% for the study. Compound containing medium was then transferred into the wells of a 24 well plate at 0.5 mL per well and warmed for 30 min in a 37° C. incubator prior to transferring washed inserts into the compound containing plates. Cells were incubated in compound containing medium (basolateral only) for 24 h prior to measurement in the MTECC24 system.
Following 24 hr treatment, compound dilutions were prepared again, diluted 1 in 1000 into 37° C. assay medium (F-12 Coon's modified, 20 mM HEPES pH7.4 with TRIS Base, No FCS or bicarbonate). Cells which were treated for 24 h with test compound were then transferred into plates containing 0.75 mL compound treatment in assay medium (basolateral) and 0.25 mL of the compound containing assay medium was added to the apical surface. The plates were then transferred to the heated plate compartments of the MTECC24 system for 45 min prior to measurements (this can also be done in a non-CO2 37° C. humidified incubator). Basolateral temperature should not exceed 36.5° C. and apical temperature should be approximately 35.5° C.
Modulators were added sequentially as follows while the MTECC24 instrument recorded the equivalent short circuit current (Ieq)
Prior to dilution into F-12 medium the stocks are as follows: Amiloride stock is 10 mM in H2O
Forskolin Stock is 10 mM in 100% DMSO
(S)-3-amino-6-methoxy-N-(3,3,3-trifluoro-2-hydroxy-2-methylpropyl)-5-(trifluoromethyl)picolinamide is 0.5 mM stock in 100% DMSO INH-172 (4-[[4-Oxo-2-thioxo-3-[3-trifluoromethyl)phenyl]-5-thiazolidinylidene]methyl]benzoic acid) stock is 30 mM in 100% DMSO […]

T2 sequence (P13569 with tags, fused parts or gaps DEL508-508): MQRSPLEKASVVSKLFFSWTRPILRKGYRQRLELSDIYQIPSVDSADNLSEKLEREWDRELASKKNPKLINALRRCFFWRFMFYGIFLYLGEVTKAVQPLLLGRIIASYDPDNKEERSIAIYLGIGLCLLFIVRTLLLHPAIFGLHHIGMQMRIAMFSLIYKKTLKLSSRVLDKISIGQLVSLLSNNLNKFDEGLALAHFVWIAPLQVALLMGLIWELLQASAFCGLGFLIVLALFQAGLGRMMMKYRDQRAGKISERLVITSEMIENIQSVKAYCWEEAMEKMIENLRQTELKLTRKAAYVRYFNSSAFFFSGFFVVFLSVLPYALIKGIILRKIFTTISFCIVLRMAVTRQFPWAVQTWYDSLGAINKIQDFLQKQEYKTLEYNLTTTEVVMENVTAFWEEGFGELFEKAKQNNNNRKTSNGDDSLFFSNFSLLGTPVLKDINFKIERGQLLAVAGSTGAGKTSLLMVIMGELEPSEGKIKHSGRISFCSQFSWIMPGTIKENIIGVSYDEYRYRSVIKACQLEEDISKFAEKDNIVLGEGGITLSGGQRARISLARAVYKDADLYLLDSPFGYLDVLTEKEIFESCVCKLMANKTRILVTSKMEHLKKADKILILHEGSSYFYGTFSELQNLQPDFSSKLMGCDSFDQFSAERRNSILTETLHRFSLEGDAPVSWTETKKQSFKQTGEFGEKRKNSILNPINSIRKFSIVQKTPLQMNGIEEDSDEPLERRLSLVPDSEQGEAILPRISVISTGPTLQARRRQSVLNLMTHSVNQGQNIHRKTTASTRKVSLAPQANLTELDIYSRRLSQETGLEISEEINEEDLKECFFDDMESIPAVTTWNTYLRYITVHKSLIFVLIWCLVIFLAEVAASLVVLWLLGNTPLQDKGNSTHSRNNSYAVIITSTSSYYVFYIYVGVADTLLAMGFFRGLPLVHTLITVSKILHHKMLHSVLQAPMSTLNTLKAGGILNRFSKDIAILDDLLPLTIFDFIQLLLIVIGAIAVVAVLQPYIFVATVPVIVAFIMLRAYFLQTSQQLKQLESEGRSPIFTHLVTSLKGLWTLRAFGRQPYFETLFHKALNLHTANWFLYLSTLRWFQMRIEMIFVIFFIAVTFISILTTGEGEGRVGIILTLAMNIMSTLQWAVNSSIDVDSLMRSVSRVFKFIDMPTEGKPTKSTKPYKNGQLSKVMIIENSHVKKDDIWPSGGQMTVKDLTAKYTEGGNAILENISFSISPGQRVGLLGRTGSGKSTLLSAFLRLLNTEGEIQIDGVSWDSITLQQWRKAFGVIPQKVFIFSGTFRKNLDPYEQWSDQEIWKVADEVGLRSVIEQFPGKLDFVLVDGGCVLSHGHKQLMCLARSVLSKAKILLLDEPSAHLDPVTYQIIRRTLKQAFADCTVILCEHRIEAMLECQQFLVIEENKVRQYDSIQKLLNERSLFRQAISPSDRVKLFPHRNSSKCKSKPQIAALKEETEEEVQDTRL
T1 sequence (P13569 with tags, fused parts or gaps DEL508-508): as above

| Structure (SMILES) | Emax (delF508-CFTR-HRP) | pEC50 (delF508-CFTR-HRP) | MTECC24 CFHBEC-Amax % (delF508-CFTR) | pEC50 (delF508-CFTR) |
| --- | --- | --- | --- | --- |
| COC(=O)C1CCN(c2cccc(S(=O)(=O)NC(=O)C3(Oc4cc(C)ccc4C4CCCCC4)CC3)n2)CC1 [Example 2-4, Methyl 1-(6-(N-(1-(2-cyclohexyl-5-methylphenoxy)cyclopropane-1-carbonyl)sulfamoyl)pyridin-2-yl)piperidine-4-carboxylate] | 808% | 5.89 | 91% | 8.00 |
| Cc1ccc(C2CCCCC2)c(OC2(C(=O)NS(=O)(=O)c3cccc(N4CCC(C)(C(=O)O)CC4)n3)CC2)c1 [Example 2-5, 1-(6-(N-(1-(2-cyclohexyl-5-methylphenoxy)cyclopropanecarbonyl)sulfamoyl)pyridin-2-yl)-4-methylpiperidine-4-carboxylic acid] | 213% | 5.52 | 66% | 8.15 |
| Cc1ccc(C2CCCCC2)c(OC2(C(=O)NS(=O)(=O)c3cccc(N4CCC(C(=O)O)CC4)n3)CC2)c1 [Example 2-6, 1-(6-(N-(1-(2-cyclohexyl-5-methylphenoxy)cyclopropanecarbonyl)sulfamoyl)pyridin-2-yl)piperidine-4-carboxylic acid] | 34% | 5.34 | 62% | 6.88 |
| Cc1ccc(C2CCCCC2)c(OC2(C(=O)NS(=O)(=O)c3cccc(N4CCC(C(=O)OC5CCCC5)CC4)n3)CC2)c1 [Example 2-7] | 389% | 6.14 | 63% | 7.80 |
| Cc1ccc(C2CCCCC2)c(OC2(C(=O)NS(=O)(=O)c3cccc(N4CCC(C)(NC(=O)OC(C)(C)C)CC4)n3)CC2)c1 [Example 2-8, Tert-butyl (1-(6-(N-(1-(2-cyclohexyl-5-methylphenoxy)cyclopropanecarbonyl)sulfamoyl)pyridin-2-yl)-4-methylpiperidin-4-yl)carbamate] | 716% | 6.27 | 60% | 7.20 |
| Cc1ccc(C2CCCCC2)c(OC2(C(=O)NS(=O)(=O)c3cccc(N4CCC(C)(N)CC4)n3)CC2)c1 [Example 2-9, N-((6-(4-Amino-4-methylpiperidin-1-yl)pyridin-2-yl)sulfonyl)-1-(2-cyclohexyl-5-methylphenoxy)cyclopropanecarboxamide] | 253% | 5.59 | 121% | 6.99 |
| Cc1ccc(C2CCCCC2)c(OC2(C(=O)NS(=O)(=O)c3cccc(N4CCC(C)(NC(=O)C5CC5)CC4)n3)CC2)c1 [Example 2-10, 1-(2-Cyclohexyl-5-methylphenoxy)-N-((6-(4-(cyclopropanecarboxamido)-4-methylpiperidin-1-yl)pyridin-2-yl)sulfonyl)cyclopropanecarboxamide] | 327% | 5.74 | 56% | 8.52 |
| Cc1ccc(C2CCCCC2)c(OC2(C(=O)NS(=O)(=O)c3cccc(N4CCC(C)(NC(=O)NC5CC5)CC4)n3)CC2)c1 [Example 2-11, 1-(2-Cyclohexyl-5-methylphenoxy)-N-((6-(4-(3-cyclopropylureido)-4-methylpiperidin-1-yl)pyridin-2-yl)sulfonyl)cyclopropanecarboxamide] | 286% | 5.59 | 77% | 7.70 |
| Cc1ccc(C2CCCCC2)c(OC2(C(=O)NS(=O)(=O)c3cccc(N4CCCC(NC(=O)OC(C)(C)C)C4)n3)CC2)c1 (stereo not shown) [Example 2-12, Tert-butyl (1-(6-(N-(1-(2-cyclohexyl-5-methylphenoxy)cyclopropanecarbonyl)sulfamoyl)pyridin-2-yl)piperidin-3-yl)carbamate] | 604% | 5.82 | 78% | 8.10 |
| Cc1ccc(C2CCCCC2)c(OC2(C(=O)NS(=O)(=O)c3cccc(N4CCC(C)(C(N)=O)CC4)n3)CC2)c1 [Example 2-14, 1-(6-(N-(1-(2-cyclohexyl-5-methylphenoxy)cyclopropanecarbonyl)sulfamoyl)pyridin-2-yl)-4-methylpiperidine-4-carboxamide] | 319% | 5.56 | 75% | 7.51 |
| Cc1ccc(C2CCCCC2)c(OC2(C(=O)NS(=O)(=O)c3cccc(N4CCC(C)(C#N)CC4)n3)CC2)c1 [Example 2-15, N-((6-(4-cyano-4-methylpiperidin-1-yl)pyridin-2-yl)sulfonyl)-1-(2-cyclohexyl-5-methylphenoxy)cyclopropanecarboxamide] | 284% | 6.03 | 101% | 8.52 |
| Cc1ccc(C2CCCCC2)c(OC2(C(=O)NS(=O)(=O)c3cccc(N4CC(C)(O)C4)n3)CC2)c1 [Example 2-16, 1-(2-Cyclohexyl-5-methylphenoxy)-N-((6-(3-hydroxy-3-methylazetidin-1-yl)pyridin-2-yl)sulfonyl)cyclopropanecarboxamide] | 642% | 5.60 | 101% | 7.92 |
| Cc1ccc(C2CCCCC2)c(OC2(C(=O)NS(=O)(=O)c3cccc(N4CCC(N)(C(F)(F)F)CC4)n3)CC2)c1 [Example 2-17, N-((6-(4-Amino-4-(trifluoromethyl)piperidin-1-yl)pyridin-2-yl)sulfonyl)-1-(2-cyclohexyl-5-methylphenoxy)cyclopropanecarboxamide] | 503% | 6.14 | 90% | 8.40 |
| COC1CN(c2cccc(S(=O)(=O)NC(=O)C3(Oc4cc(C)ccc4C4CCCCC4)CC3)n2)C1 [Example 2-18, 1-(2-Cyclohexyl-5-methylphenoxy)-N-((6-(3-methoxyazetidin-1-yl)pyridin-2-yl)sulfonyl)cyclopropanecarboxamide] | 597% | 5.80 | 91% | 7.68 |
| Cc1ccc(C2CCCCC2)c(OC2(C(=O)NS(=O)(=O)c3cccc(N4CCC(N)(CF)CC4)n3)CC2)c1 [Example 2-19, N-((6-(4-Amino-4-(fluoromethyl)piperidin-1-yl)pyridin-2-yl)sulfonyl)-1-(2-cyclohexyl-5-methylphenoxy)cyclopropanecarboxamide] | 326% | 5.58 | 120% | 7.21 |
| Cc1ccc(C2CCCCC2)c(OC2(C(=O)NS(=O)(=O)c3cccc(N4CCC5(CCCC5N)CC4)n3)CC2)c1 (stereo not shown) [Example 2-20, N-((6-(1-Amino-8-azaspiro[4.5]decan-8-yl)pyridin-2-yl)sulfonyl)-1-(2-cyclohexyl-5-methylphenoxy)cyclopropanecarboxamide] | 354% | 5.60 | 122% | 6.70 |
